Assay [1] deals with T1, Serine protease 1 (Bos taurus, UniProt P00760).
T1 sequence (P00760 whole entry): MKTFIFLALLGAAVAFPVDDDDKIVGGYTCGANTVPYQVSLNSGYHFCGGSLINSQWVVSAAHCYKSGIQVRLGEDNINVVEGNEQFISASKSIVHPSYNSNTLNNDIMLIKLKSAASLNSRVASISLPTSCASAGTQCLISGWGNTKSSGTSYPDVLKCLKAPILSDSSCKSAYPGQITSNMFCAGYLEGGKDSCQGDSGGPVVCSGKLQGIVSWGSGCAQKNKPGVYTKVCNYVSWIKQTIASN
Briefly: Binding affinity towards trypsin.

In assay [2] the target is Coagulation factor X (Homo sapiens, UniProt P00742). Briefly: Binding affinity towards Coagulation factor Xa.
Sequence of Coagulation factor X (P00742 41-179 limits assumed): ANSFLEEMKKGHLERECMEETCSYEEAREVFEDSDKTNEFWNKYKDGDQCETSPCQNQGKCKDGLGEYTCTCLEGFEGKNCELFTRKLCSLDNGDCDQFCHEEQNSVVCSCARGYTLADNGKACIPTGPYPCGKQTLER
Sequence of Coagulation factor X (P00742 235-488 limits assumed): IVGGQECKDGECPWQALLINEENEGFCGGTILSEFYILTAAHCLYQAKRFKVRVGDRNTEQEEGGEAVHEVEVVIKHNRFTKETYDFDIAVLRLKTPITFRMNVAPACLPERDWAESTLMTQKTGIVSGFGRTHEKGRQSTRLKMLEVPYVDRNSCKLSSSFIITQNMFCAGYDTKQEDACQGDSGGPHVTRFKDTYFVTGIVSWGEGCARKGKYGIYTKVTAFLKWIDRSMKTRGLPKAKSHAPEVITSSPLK
In assay [3] the target is Prothrombin (Bos taurus, UniProt P00735). Briefly: Binding affinity towards thrombin.

The source of these data is ChEMBL document CHEMBL1132189, “Three-dimensional quantitative structure-activity relationship analyses using comparative molecular field analysis and comparative molecular similarity indices analysis to elucidate selectivity differences of inhibitors binding to trypsin, thrombin, and factor Xa” (J Med Chem, 1999).

The structures appear in SMILES notation.

Consider `CNC(=O)[C@H]1CCCN(C(=O)[C@H](Cc2cccc(C(=N)N)c2)NS(=O)(=O)c2c(C(C)C)cc(C(C)C)cc2C(C)C)C1`, for which the Ki (as a rule, a dissociation constant, usually derived from enzyme kinetics or from competition with a known ligand) in assay [1] is 794 nM; in assay [2] it was 1510 nM; in assay [3] it was 230 nM.

For the molecule `CC(C)c1cc(C(C)C)c(S(=O)(=O)N[C@@H](Cc2cccc(C(=N)N)c2)C(=O)N2CCC[C@H](C(=O)NCc3ccccc3)C2)c(C(C)C)c1`, the Ki in assay [1] was 460 nM; in assay [2] it was 2510 nM; in assay [3], 1800 nM.

Regarding `CC(C)OC(=O)[C@H](Cc1cccc(C(=N)N)c1)NS(=O)(=O)c1ccc2ccccc2c1`, the results for the Ki in assay [1], in assay [2] and in assay [3] were 1410 nM, 3500 nM and 110 nM, respectively.

Take `N=C(N)c1cccc(C[C@H](NS(=O)(=O)c2ccc3ccccc3c2)C(=O)N2CCNCC2)c1`: the Ki in assay [1] was 220 nM; in assay [2], 21000 nM; in assay [3], 500 nM.

For the molecule `N=C(N)c1cccc(C[C@H](NS(=O)(=O)c2ccc3ccccc3c2)C(=O)N2CCC[C@H](C(=O)OCc3ccccc3)C2)c1`, the values for the Ki in assay [1], in assay [2] and in assay [3] were 160 nM, 8590 nM and 300 nM, respectively.

As to `CC1CCN(C(=O)[C@H](Cc2cccc(C(=N)N)c2)NS(=O)(=O)c2cccc3ccccc23)CC1`, the values for the Ki in assay [1], in assay [2] and in assay [3] were 631 nM, 42000 nM and 16 nM, respectively.

For `CN(C)c1cccc2c(S(=O)(=O)N[C@@H](Cc3cccc(C(=N)N)c3)C(=O)N3CCN(S(C)(=O)=O)CC3)cccc12`, the Ki in assay [1] is 170 nM; in assay [2], 3890 nM; in assay [3], 4.17 nM.

On to `CN1CCN(C(=O)[C@H](Cc2cccc(C(=N)N)c2)NS(=O)(=O)c2ccc3ccccc3c2)CC1`, for which the Ki was 1300 nM in assay [1], 30000 nM in assay [2] and 36 nM in assay [3].

Consider `N=C(N)c1cccc(C[C@H](NS(=O)(=O)c2ccc3ccccc3c2)C(=O)N2CCCc3ccccc32)c1`, for which the Ki in assay [1] is 1510 nM; in assay [2] it was 2300 nM; in assay [3], 120 nM.

In the case of `COC(=O)C1CCN(C(=O)[C@H](Cc2cccc(C(=N)N)c2)NS(=O)(=O)c2c(C(C)C)cc(C(C)C)cc2C(C)C)CC1`, the Ki in assay [1] was 270 nM; in assay [2], 2600 nM; in assay [3], 151 nM.

For the molecule `N=C(N)c1cccc(C[C@H](NS(=O)(=O)c2ccc3ccccc3c2)C(=O)N2CCCCCC2)c1`, the Ki in assay [1] was 550 nM; in assay [2], 26000 nM; in assay [3], 21 nM.

`COC(=O)[C@H]1CCCN(C(=O)[C@H](Cc2cccc(C(=N)N)c2)NS(=O)(=O)c2ccc3ccccc3c2)C1`: the Ki in assay [1] is 389 nM; in assay [2], 18000 nM; in assay [3] it was 151 nM.

In the case of `Cc1c(C)c(S(=O)(=O)N[C@@H](Cc2cccc(C(=N)N)c2)C(=O)N2CCC(C)CC2)c(C)c2c1OC(C)(C)CC2`, the Ki in assay [1] is 729 nM; in assay [2], 80000 nM; in assay [3] it was 34 nM.

`CC(C)OC(=O)[C@H]1CCCN(C(=O)[C@H](Cc2cccc(C(=N)N)c2)NS(=O)(=O)c2ccc3ccccc3c2)C1`: the Ki in assay [1] is 427 nM; in assay [2], 16000 nM; in assay [3] it was 511 nM.

`N=C(N)c1cccc(C[C@H](NS(=O)(=O)c2ccc3ccccc3c2)C(=O)N2Cc3ccccc3C[C@@H]2C(=O)OCc2ccccc2)c1`: the values for the Ki in assay [1], in assay [2] and in assay [3] were 1200 nM, 7760 nM and 690 nM, respectively.

With `COC(=O)[C@H]1Cc2ccccc2CN1C(=O)[C@H](Cc1cccc(C(=N)N)c1)NS(=O)(=O)c1ccc2ccccc2c1`, the Ki in assay [1] is 1200 nM; in assay [2], 27000 nM; in assay [3], 200 nM.

For the molecule `CCCCNC(=O)[C@H](Cc1cccc(C(=N)N)c1)NS(=O)(=O)c1ccc2ccccc2c1`, the results for the Ki in assay [1], in assay [2] and in assay [3] were 4000 nM, 46800 nM and 120 nM, respectively.

`COC(=O)[C@H]1C[C@H](C)CCN1C(=O)[C@H](Cc1cccc(C(=N)N)c1)NS(=O)(=O)c1ccc2ccccc2c1`: the Ki is 2200 nM in assay [1], […] in assay [2] and 95.9 nM in assay [3].
